{"source": "paper PMC8642284", "about": "(Structure (London, England : 1993), 2021)", "molecules": {"B1": {"name": "human ACAT2 (acyl-CoA:cholesterol acyltransferase 2) (enzyme)", "chain": "EPGGARLRLQRTEGLGGERERQPCGDGNTETHRAPDLVQWTRHMEAVKAQLLEQAQGQLRELLDRAMREAIQSYPSQDKPLPPPPPGSLSRTQEPSLGKQKVFIIRKSLLDELMEVQHFRTIYHMFIAGLCVFIISTLAIDFIDEGRLLLEFDLLIFSFGQLPLALVTWVPMFLSTLLAPYQALRLWARGTWTQATGLGCALLAAHAVVLCALPVHVAVEHQLPPASRCVLVFEQVRFLMKSYSFLREAVPGTLRARRGEGIQAPSFSSYLYFLFCPTLIYRETYPRTPYVRWNYVAKNFAQALGCVLYACFILGRLCVPVFANMSREPFSTRALVLSILHATLPGIFMLLLIFFAFLHCWLNAFAEMLRFGDRMFYRDWWNSTSFSNYYRTWNVVVHDWLYSYVYQDGLRLLGARARGVAMLGVFLVSAVAHEYIFCFVLGFFYPVMLILFLVIGGMLNFMMHDQRTGPAWNVLMWTMLFLGQGIQVSLYCQEWYARRHCPLPQATFWGLVTPRSWSCHT"}}, "key": {"[1]": {"biological_target": "T1, ACAT2 (Homo sapiens, UniProt O75908)", "T1 sequence (O75908 1-522)": "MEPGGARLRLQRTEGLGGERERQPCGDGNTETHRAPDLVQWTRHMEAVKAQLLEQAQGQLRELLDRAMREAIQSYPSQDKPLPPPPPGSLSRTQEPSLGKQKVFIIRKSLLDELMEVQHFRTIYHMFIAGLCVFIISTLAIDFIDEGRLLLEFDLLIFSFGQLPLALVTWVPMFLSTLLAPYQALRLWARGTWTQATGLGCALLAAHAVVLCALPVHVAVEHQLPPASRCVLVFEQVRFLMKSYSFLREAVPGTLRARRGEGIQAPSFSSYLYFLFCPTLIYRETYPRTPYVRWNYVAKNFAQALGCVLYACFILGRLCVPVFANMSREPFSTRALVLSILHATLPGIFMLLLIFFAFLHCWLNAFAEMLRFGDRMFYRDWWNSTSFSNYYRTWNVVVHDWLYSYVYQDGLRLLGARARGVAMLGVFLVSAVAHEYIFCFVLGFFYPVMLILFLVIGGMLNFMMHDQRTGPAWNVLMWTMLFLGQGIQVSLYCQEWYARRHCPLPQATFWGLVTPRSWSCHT", "assay": "cryo-EM structure", "format": "biochemical"}, "[2]": {"biological_target": "the molecule itself", "assay": "cryo-EM structure"}}}
{"molecule": "CC(C)c1cccc(C(C)C)c1NC(=O)NCC1(c2ccc(N(C)C)cc2)CCCC1", "note": "[nevanimibe]", "values": [{"measurement": "IC50", "setting": "[1]", "result": 710, "unit": "nM"}]}
{"molecule": "B1", "values": [{"measurement": "stoichiometry N", "setting": "[2]", "result": 4}]}
